Data: ChEMBL document CHEMBL4732248, “Synthesis and antibacterial activities of marine natural product ianthelliformisamines and subereamine synthetic analogues” (Bioorg Med Chem Lett, 2021)
In brackets after ≈: the same amount, converted by molar mass. Activity calls are given as the source filed them. The rule behind the calls is not given here.

Legend:
[1] = tested on: Staphylococcus aureus; experiment: Antibacterial activity against Staphylococcus aureus assessed as zone of inhibition at 25 to 100 ug by disc diffusion method; format: functional, organism-based; settings: dose 25-100 µg
[2] = tested on: Escherichia coli; experiment: Antibacterial activity against Escherichia coli assessed as zone of inhibition at 25 to 100 ug by disc diffusion method; format: functional, organism-based; settings: dose 25-100 µg
[3] = Cytotoxicity against human HEK293 cells assessed as viable cells at 50 uM after 48 hrs by calcein-AM staining based fluorescence analysis; format: cell-based; settings: read-out: Activity
[4] = tested on: Staphylococcus aureus; experiment: Antibacterial activity against Staphylococcus aureus assessed as minimum concentration required to decrease 90% bacteria measured after 24 hrs by broth dilution assay; format: functional
[5] = tested on: Escherichia coli; experiment: Antibacterial activity against Escherichia coli assessed as bacterial growth inhibition measured after 24 hrs by broth dilution assay; format: functional, organism-based; settings: for IC50: 24 h; for MIC: time 24 hrs
[6] = tested on: Escherichia coli; experiment: Antibacterial activity against Escherichia coli assessed as minimum concentration required to decrease 90% bacteria measured after 24 hrs by broth dilution assay; format: functional
[7] = tested on: Cell membrane; experiment: Induction of cell membrane permeabilization in Escherichia coli assessed as increase in propidium iodide intake at MIC by propidium iodide staining based assay; settings: TDE = time-dependent effect
[8] = tested on: Staphylococcus aureus; experiment: Antibacterial activity against Staphylococcus aureus assessed as bacterial growth inhibition measured after 24 hrs by broth dilution assay; format: functional, organism-based; settings: for IC50: 24 h; for MIC: time 24 hrs
[9] = tested on: Cell membrane; experiment: Induction of cell membrane permeabilization in Staphylococcus aureus assessed as increase in propidium iodide intake at MIC by propidium iodide staining based assay; settings: time 48.0 hrs, TDE = time-dependent effect

Row | Compound | inhibition [1] | inhibition [2] | viability at 48 h, 50 µM [3] | MBC [4] | IC50 [5] | MIC [5] | MBC [6] | Activity [7] | IC50 [8] | MIC [8] | Activity [9]
1 | COc1cc(/C=C\C(=O)NCCCNCc2cccc(CNCCCNC(=O)/C=C\c3cc(OC)c(Br)cc3Br)c2)c(Br)cc1Br | Active | Active | > 95% | 50 µM (≈ 44.3 µg/mL) | 37.3 µM | 25 µM (≈ 22.2 µg/mL) | 25 µM (≈ 22.2 µg/mL) | Tde | 13.9 µM | 50 µM (≈ 44.3 µg/mL) | Tde
2 | COc1c(Br)cc(Br)c(/C=C/C(=O)NCCCNCc2cccc(CNCCCNC(=O)/C=C/c3c(Br)cc(Br)c(OC)c3Br)c2)c1Br | – | – | – | – | – | > 200 µM | – | – | – | > 200 µM | –
3 | CC1(C)S[C@@H]2[C@H](NC(=O)[C@H](N)c3ccccc3)C(=O)N2[C@H]1C(=O)O [AMPICILLIN] | – | – | – | – | 33.6 µM | – | – | – | 3.8 µM | – | –
4 | COc1c(Br)cc(/C=C/C(=O)NCCCNCc2cccc(CNCCCNC(=O)/C=C/c3cc(Br)c(OC)c(Br)c3)c2)cc1Br | – | – | – | – | – | > 200 µM | – | – | – | > 200 µM | –
